In patent publication US10392404B2, “Compounds and compositions as kinase inhibitors” (NOVARTIS AG, priority 2014, dated 2019):
pIC50: −log10 of the molar value.

Experiments:
b-Raf (V600E) = target: T1, b-Raf (V600E) (Homo sapiens, UniProt P15056, V600E); assay: In vitro Raf activity determination (Alpha Screen, biotinylated kinase-dead MEK1 substrate), B-Raf; assay type: biochemical; conditions: b-Raf (V600E) approximately 4 pM; ATP 10 μM; pre-incubation 60 minutes; reaction 3 hours at room temperature
T1 construct: made in house
T1 sequence (P15056 whole entry V600E): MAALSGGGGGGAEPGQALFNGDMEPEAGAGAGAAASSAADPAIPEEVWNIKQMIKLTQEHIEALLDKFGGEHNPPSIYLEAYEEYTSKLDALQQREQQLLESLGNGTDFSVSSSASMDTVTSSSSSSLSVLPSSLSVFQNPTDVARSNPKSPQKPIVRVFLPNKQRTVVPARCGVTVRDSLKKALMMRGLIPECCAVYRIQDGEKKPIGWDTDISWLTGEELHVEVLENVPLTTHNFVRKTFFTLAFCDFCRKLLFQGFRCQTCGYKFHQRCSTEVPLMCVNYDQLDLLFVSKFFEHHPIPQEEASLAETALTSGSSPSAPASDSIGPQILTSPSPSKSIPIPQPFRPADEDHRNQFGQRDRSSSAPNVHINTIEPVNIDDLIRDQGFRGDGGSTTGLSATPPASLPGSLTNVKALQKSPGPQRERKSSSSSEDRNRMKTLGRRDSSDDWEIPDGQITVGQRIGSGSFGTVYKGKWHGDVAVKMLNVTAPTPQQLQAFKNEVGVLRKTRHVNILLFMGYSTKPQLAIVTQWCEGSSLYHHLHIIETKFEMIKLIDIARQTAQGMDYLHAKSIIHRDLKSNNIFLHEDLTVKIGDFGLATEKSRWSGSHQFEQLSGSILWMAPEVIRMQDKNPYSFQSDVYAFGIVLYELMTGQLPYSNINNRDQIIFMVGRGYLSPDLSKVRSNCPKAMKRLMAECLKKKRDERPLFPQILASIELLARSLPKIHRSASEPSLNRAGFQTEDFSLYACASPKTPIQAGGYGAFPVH
Procedure, shortened: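 Activated b-Raf(V600E) (~4 pM) pre-incubated 60 min with compound and biotinylated kinase-dead (K97R) MEK1 (~10 nM), then reacted 3 h at room temperature with 10 μM ATP in 50 mM Tris pH 7.5, 15 mM MgCl2, 0.01% BSA, 1 mM DTT. Phospho-MEK detected by AlphaScreen; IC50 by non-linear regression.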

C-RAF = target: T2, C-RAF (Homo sapiens, UniProt P04049, Y340E/Y341E); assay: In vitro Raf activity determination (Alpha Screen, biotinylated kinase-dead MEK1 substrate), C-Raf; assay type: biochemical; conditions: c-Raf approximately 4 nM; ATP 1 μM; pre-incubation 60 minutes; reaction 1 hour at room temperature
T2 construct: His tag (implied by nickel chromatography) (cleaved yes); StrepII tag (cleaved yes); made in house; host or cells: Sf9 insect cells (baculovirus), CRAF and h14-3-3 zeta co-expressed; MEK1 substrate from E. coli
T2 sequence (P04049 whole entry Y340E/Y341E): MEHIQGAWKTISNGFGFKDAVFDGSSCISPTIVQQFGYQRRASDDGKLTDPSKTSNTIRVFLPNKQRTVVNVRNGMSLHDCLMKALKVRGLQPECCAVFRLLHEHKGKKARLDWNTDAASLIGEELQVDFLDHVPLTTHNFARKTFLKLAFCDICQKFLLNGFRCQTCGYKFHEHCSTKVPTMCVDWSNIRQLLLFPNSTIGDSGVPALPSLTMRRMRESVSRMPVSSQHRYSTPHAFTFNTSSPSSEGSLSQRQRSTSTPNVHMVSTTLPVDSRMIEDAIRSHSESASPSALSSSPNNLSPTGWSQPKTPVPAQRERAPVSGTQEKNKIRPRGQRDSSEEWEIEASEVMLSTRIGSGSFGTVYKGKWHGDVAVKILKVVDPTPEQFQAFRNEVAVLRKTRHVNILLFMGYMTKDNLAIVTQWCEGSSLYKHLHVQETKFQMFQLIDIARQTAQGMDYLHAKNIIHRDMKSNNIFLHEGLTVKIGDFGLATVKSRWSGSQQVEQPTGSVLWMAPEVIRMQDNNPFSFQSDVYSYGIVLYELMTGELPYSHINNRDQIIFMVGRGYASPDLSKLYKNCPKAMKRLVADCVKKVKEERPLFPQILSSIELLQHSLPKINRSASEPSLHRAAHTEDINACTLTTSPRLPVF
T2 sequence (P63104 whole entry partner): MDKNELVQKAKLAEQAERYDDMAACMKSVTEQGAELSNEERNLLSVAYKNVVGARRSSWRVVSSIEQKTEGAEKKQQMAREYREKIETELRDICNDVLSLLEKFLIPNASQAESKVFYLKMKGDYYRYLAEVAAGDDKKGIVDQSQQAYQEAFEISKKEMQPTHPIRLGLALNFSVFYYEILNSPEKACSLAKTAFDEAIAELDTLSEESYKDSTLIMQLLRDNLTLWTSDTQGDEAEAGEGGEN
Procedure, shortened: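 Full-length C-Raf carrying Y340E/Y341E, co-expressed with 14-3-3ζ in Sf9 cells, at approximately 4 nM, with approximately 10 nM biotinylated kinase-dead MEK1 (K97R) and 1 μM ATP, pH 7.5. Compound preincubated 60 min, reaction 1 hour at room temperature. Phospho-MEK read by AlphaScreen; IC50 by non-linear regression.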

| SMILES | pIC50 (b-Raf (V600E)) | pIC50 (C-RAF) |
| --- | --- | --- |
| Cc1ncc(NC(=O)c2ccnc(C(C)C)c2)cc1-c1cnc(N2CCOCC2)c(C#N)c1 [Example 133, N-(5′-cyano-2-methyl-6′-morpholino-[3,3′-bipyridin]-5-yl)-2-isopropyl-isonicotinamide] | 8.69 | 9.48 |
| Cc1ncc(NC(=O)c2ccnc(C3CC3)c2)cc1-c1cnc(N2CCOCC2)c(C#N)c1 [Example 134, N-(5′-cyano-2-methyl-6′-morpholino-[3,3′-bipyridin]-5-yl)-2-cyclopropyl-isonicotinamide] | 8.83 | 9.63 |
| CCn1cc(C(=O)Nc2cnc(C)c(-c3cnc(N4CCOCC4)c(C#N)c3)c2)cc(C(F)(F)F)c1=O [Example 135, N-(5′-cyano-2-methyl-6′-morpholino-[3,3′-bipyridin]-5-yl)-1-ethyl-6-oxo-5-(trifluoromethyl)-1,6-dihydropyridine-3-carboxamide] | 8.32 | 9.01 |
| Cc1ncc(NC(=O)c2ccnc(C(F)F)c2)cc1-c1cnc(N2CCOCC2)c(C#N)c1 [Example 136, N-(5′-cyano-2-methyl-6′-morpholino-[3,3′-bipyridin]-5-yl)-2-(difluoromethyl) isonicotinamide] | 8.94 | 9.82 |
| Cc1ccc(NC(=O)c2ccnc(C(C)(C)C#N)c2)cc1-c1cnc(C2CCOCC2)c(C#N)c1 [Example 137, N-(3-(5-cyano-6-(tetrahydro-2H-pyran-4-yl)pyridin-3-yl)-4-methylphenyl)-2-(2-cyanopropan-2-yl)isonicotinamide] | 8.70 | 9.32 |
| Cc1ccc(NC(=O)c2ccnc(S(C)(=O)=O)c2)cc1-c1cnc(C2CCOCC2)c(C#N)c1 [Example 138, N-(3-(5-cyano-6-(tetrahydro-2H-pyran-4-yl)pyridin-3-yl)-4-methylphenyl)-2-(methylsulfonyl) isonicotinamide] | 8.38 | 9.29 |
| Cc1ccc(NC(=O)c2cccc(S(C)(=O)=O)c2)cc1-c1cnc(C2CCOCC2)c(C#N)c1 [Example 139, N-(3-(5-cyano-6-(tetrahydro-2H-pyran-4-yl)pyridin-3-yl)-4-methylphenyl)-3-(methylsulfonyl) benzamide] | 8.62 | 9.42 |
| Cc1ccc(NC(=O)c2ccnc(C(C)(C)O)c2)cc1-c1cnc(C2CCOCC2)c(C#N)c1 [Example 140, N-(3-(5-cyano-6-(tetrahydro-2H-pyran-4-yl)pyridin-3-yl)-4-methylphenyl)-2-(2-hydroxypropan-2-yl)isonicotinamide] | 8.44 | 9.10 |
| Cc1ncc(NC(=O)c2cccc(C(F)(F)F)n2)cc1-c1cnc(C2CCOCC2)c(C#N)c1 [Example 141, N-(5′-cyano-2-methyl-6′-(tetrahydro-2H-pyran-4-yl)-[3,3′-bipyridin]-5-yl)-6-(trifluoromethyl) picolinamide] | 7.25 | 8.29 |
| Cc1ncc(NC(=O)c2cnnc(C(F)(F)F)c2)cc1-c1cnc(N2CCOCC2)c(C#N)c1 [Example 142, N-(5′-cyano-2-methyl-6′-morpholino-[3,3′-bipyridin]-5-yl)-6-(trifluoromethyl) pyridazine-4-carboxamide] | 8.55 | 9.46 |
| Cc1ccc(NC(=O)c2cnnc(C(F)(F)F)c2)cc1-c1cnc(N2CCNCC2)c(C#N)c1 [Example 143, N-(3-(5-cyano-6-(piperazin-1-yl)pyridin-3-yl)-4-methylphenyl)-6-(trifluoromethyl) pyridazine-4-carboxamide] | 8.25 | 9.07 |
| Cc1ncc(NC(=O)c2cnnc(C(F)(F)F)c2)cc1-c1cnc(C2CCOCC2)c(C#N)c1 [Example 144, N-(5′-cyano-2-methyl-6′-(tetrahydro-2H-pyran-4-yl)-[3,3′-bipyridin]-5-yl)-6-(trifluoromethyl) pyridazine-4-carboxamide] | 7.12 | 7.90 |
| Cc1ccc(NC(=O)c2ccnc(C3(C#N)CC3)c2)cc1-c1cnc(N2CCNCC2)c(C#N)c1 [Example 145, N-(3-(5-cyano-6-(piperazin-1-yl)pyridin-3-yl)-4-methylphenyl)-2-(1-cyanocyclopropyl) isonicotinamide] | 9.25 | 9.83 |
| Cc1ncc(NC(=O)c2ccnc(C3(C#N)CC3)c2)cc1-c1cnc(N2CCOCC2)c(C#N)c1 [Example 146, N-(5′-cyano-2-methyl-6′-morpholino-[3,3′-bipyridin]-5-yl)-2-(1-cyanocyclopropyl) isonicotinamide] | 8.87 | 9.58 |
| Cc1ccc(NC(=O)c2ccnc(C3(C#N)CC3)c2)cc1-c1cnc(N2CCOCC2)c(C#N)c1 [Example 147, N-(3-(5-cyano-6-morpholinopyridin-3-yl)-4-methylphenyl)-2-(1-cyanocyclopropyl) isonicotinamide] | 9.30 | 9.94 |
| Cc1ncc(NC(=O)c2ccnc(C3(C#N)CC3)c2)cc1-c1cnc(C2CCOCC2)c(C#N)c1 [Example 148, N-(5'-cyano-2-methyl-6'-(tetrahydro-2H-pyran-4-yl)-[3,3'-bipyridin]-5-yl)-2-(1-cyanocyclopropyl) isonicotinamide] | 8.48 | 9.14 |
| Cc1ccc(NC(=O)c2ccccc2)cc1-c1cncc(C#N)c1 [Example 149, N-(3-(5-cyanopyridin-3-yl)-4-methylphenyl) benzamide] | 4.82 | 5.63 |
| Cc1ccc(NC(=O)c2ccnc(C(C)C)c2)cc1-c1cnc(N2CCNCC2)c(C#N)c1 [Example 150, N-(3-(5-cyano-6-(piperazin-1-yl)pyridin-3-yl)-4-methylphenyl)-2-isopropyl-isonicotinamide] | 9.23 | 9.80 |
| Cc1ccc(NC(=O)c2ccnc(C(C)(C)C#N)c2)cc1-c1cnc(N2CCNCC2)c(C#N)c1 [Example 151, N-(3-(5-cyano-6-(piperazin-1-yl)pyridin-3-yl)-4-methylphenyl)-2-(2-cyanopropan-2-yl)isonicotinamide] | 8.85 | 9.45 |
| Cc1ccc(NC(=O)c2ccnc(S(C)(=O)=O)c2)cc1-c1cnc(N2CCNCC2)c(C#N)c1 [Example 152, N-(3-(5-cyano-6-(piperazin-1-yl)pyridin-3-yl)-4-methylphenyl)-2-(methylsulfonyl) isonicotinamide] | 8.25 | 9.15 |
| Cc1ccc(NC(=O)c2ccnc(C(F)(F)F)c2)cc1-c1cnc(N2CCNCC2)c(C#N)c1 [Example 153, N-(3-(5-cyano-6-(piperazin-1-yl)pyridin-3-yl)-4-methylphenyl)-2-(trifluoromethyl) isonicotinamide] | 9.15 | 9.82 |
| Cc1ccc(NC(=O)c2ccnc(C(F)F)c2)cc1-c1cnc(N2CCOCC2)c(C#N)c1 [Example 154, N-(3-(5-cyano-6-morpholinopyridin-3-yl)-4-methylphenyl)-2-(difluoromethyl) isonicotinamide] | 9.47 | 10.17 |
| Cc1ccc(NC(=O)c2ccnc(C3CC3)c2)cc1-c1cnc(N2CCOCC2)c(C#N)c1 [Example 155, N-(3-(5-cyano-6-morpholinopyridin-3-yl)-4-methylphenyl)-2-cyclopropyl-isonicotinamide] | 9.58 | 10.40 |
| Cc1ccc(NC(=O)c2ccnc(S(C)(=O)=O)c2)cc1-c1cnc(N2CCOCC2)c(C#N)c1 [Example 156, N-(3-(5-cyano-6-morpholinopyridin-3-yl)-4-methylphenyl)-2-(methylsulfonyl) isonicotinamide] | 9.46 | 10.22 |
| Cc1ccc(NC(=O)c2cccc(S(C)(=O)=O)c2)cc1-c1cnc(N2CCOCC2)c(C#N)c1 [Example 157, N-(3-(5-cyano-6-morpholinopyridin-3-yl)-4-methylphenyl)-(methylsulfonyl) benzamide] | 9.52 | 10.25 |
| Cc1ccc(NC(=O)c2ccnc(C3CC3)c2)cc1-c1cnc(N2CCNCC2)c(C#N)c1 [Example 158, N-(3-(5-cyano-6-(piperazin-1-yl)pyridin-3-yl)-4-methylphenyl)-2-cyclopropyl isonicotinamide] | 8.96 | 9.70 |
| Cc1ccc(NC(=O)c2cccc(S(C)(=O)=O)c2)cc1-c1cnc(N2CCNCC2)c(C#N)c1 [Example 159, N-(3-(5-cyano-6-(piperazin-1-yl)pyridin-3-yl)-4-methylphenyl)-3-(methylsulfonyl) benzamide] | 8.83 | 9.71 |
| Cc1ccc(NC(=O)c2ccnc(C(F)F)c2)cc1-c1cnc(N2CCNCC2)c(C#N)c1 [Example 160, N-(3-(5-cyano-6-(piperazin-1-yl)pyridin-3-yl)-4-methylphenyl)-2-(difluoromethyl) isonicotinamide] | 8.80 | 9.80 |
| Cc1ccc(NC(=O)c2ccnc(C(C)(F)F)c2)cc1-c1cnc(N2CCNCC2)c(C#N)c1 [Example 161, N-(3-(5-cyano-6-(piperazin-1-yl)pyridin-3-yl)-4-methylphenyl)-2-(1,1-difluoroethyl) isonicotinamide] | 9.24 | 9.82 |
| CCn1cc(C(=O)Nc2ccc(C)c(-c3cnc(N4CCNCC4)c(C#N)c3)c2)cc(C(F)(F)F)c1=O [Example 162, N-(3-(5-cyano-6-(piperazin-1-yl)pyridin-3-yl)-4-methylphenyl)-1-ethyl-6-oxo-5-(trifluoromethyl)-1,6-dihydropyridine-3-carboxamide] | 8.60 | 9.28 |
